In patent EP0908457B1, “3-(1,2-benzisothiazol- and isoxazol-5-Y1)-2,4(1H,3H)-pyrimidinedione or thione and 3-(1,2-benzisothiazol- and isoxazol-5-y1)-4(3H)-pyrimidinone or thione herbicidal agents” (BASF AKTIENGESELLSCHAFT, priority 1997, dated 1999):

Columns and labels:
[1] = test system: Echinochloa oryzoides (Ard.) Fritsch.; test: Preemergence weed control under flooded paddy conditions, ECHORC (Watergrass (Calif.)); type: in vivo; conditions: preemergence weeds, flooded paddy, rated three to four weeks after treatment; also: meaning of each grade not given here
[2] = test system: Cyperus iria; test: Preemergence weed control under flooded paddy conditions, CYPIR (Rice Flatsedge); type: in vivo; conditions: preemergence weeds, flooded paddy, rated three to four weeks after treatment; also: meaning of each grade not given here
[3] = test system: Cyperus serotinus, Rottb.; test: Preemergence weed control under flooded paddy conditions, CYPSE (Flatsedge); type: in vivo; conditions: preemergence weeds, rated three to four weeks after treatment; also: meaning of each grade not given here
[4] = test system: Monochoria vaginalis, Presl.; test: Preemergence weed control under flooded paddy conditions, MOOVA (Monochoria); type: in vivo; conditions: preemergence weeds, flooded paddy, rated three to four weeks after treatment; also: meaning of each grade not given here
[5] = test system: Sagittaria pygmaea, L.; test: Preemergence weed control under flooded paddy conditions, SAGPY (Arrowhead (Pygmaea)); type: in vivo; conditions: preemergence weeds, flooded paddy, rated three to four weeks after treatment; also: meaning of each grade not given here
[6] = test system: Echinochloa oryzoides (Ard.) Fritsch.; test: Postemergence weed control under flooded paddy conditions, ECHORC (Watergrass (Calif.)); type: in vivo; conditions: rated three to four weeks after treatment
[7] = test system: Cyperus iria; test: Postemergence weed control under flooded paddy conditions, CYPIR (Rice Flatsedge); type: in vivo; conditions: rated three to four weeks after treatment
[8] = test system: Cyperus serotinus, Rottb.; test: Postemergence weed control under flooded paddy conditions, CYPSE (Flatsedge); type: in vivo; conditions: rated three to four weeks after treatment
[9] = test system: Monochoria vaginalis, Presl.; test: Postemergence weed control under flooded paddy conditions, MOOVA (Monochoria); type: in vivo; conditions: rated three to four weeks after treatment
[10] = test system: Sagittaria pygmaea, L.; test: Postemergence weed control under flooded paddy conditions, SAGPY (Arrowhead (Pygmaea)); type: in vivo; conditions: rated three to four weeks after treatment
[11] = test system: Oryza sativa, (L.) Tebonnet; test: Rice tolerance to post-transplant applications under flooded paddy conditions (Example 187), ORYSAT (Rice, Tebonnet); conditions: rated three to four weeks after treatment; also: meaning of each grade not given here
[12] = test system: Oryza sativa, (L.) Tebonnet; test: Rice tolerance to post-transplant applications under flooded paddy conditions (Example 188), ORYSAT (Rice, Tebonnet); conditions: rated three to four weeks after treatment

COc1ccc(OC)c(-c2nsc3ccc(-n4c(=O)cc(C(F)(F)F)n(C)c4=O)cc23)c1 [Example 333, 2,4(1H,3H)-Pyrimidinedione, 3-[3-(2,5-dimethoxyphenyl)-1,2-benzisothiazol-5-yl]-1-methyl-6-(trifluoromethyl)-]
4.0: herbicidal effect rating, CYPSE ([8]; Rate 0.1250 kg/ha) | herbicidal effect rating, SAGPY ([10]; Rate 0.1250 kg/ha) | herbicidal effect rating, SAGPY ([10]; Rate 0.2500 kg/ha) | herbicidal effect rating ORYSAT ([11]; Rate 0.0320 kg/ha) | herbicidal effect rating, ORYSAT (rice tolerance) ([12]; Rate 0.0320 kg/ha)
5.0: herbicidal effect rating, ORYSAT (rice tolerance) ([12]; Rate 0.0620 kg/ha)
0.0: herbicidal effect rating, CYPSE ([8]; Rate 0.0320 kg/ha) | herbicidal effect rating, SAGPY ([10]; Rate 0.0320 kg/ha)
2.0: herbicidal effect rating, CYPSE ([8]; Rate 0.0620 kg/ha) | herbicidal effect rating, SAGPY ([10]; Rate 0.0620 kg/ha)
8.5: herbicidal effect rating, SAGPY ([5]; Rate 0.1250 kg/ha)
7.0: herbicidal effect rating, CYPSE ([3]; Rate 0.0320 kg/ha) | herbicidal effect rating, CYPSE ([3]; Rate 0.0620 kg/ha) | herbicidal effect rating ORYSAT ([11]; Rate 0.1250 kg/ha) | herbicidal effect rating ORYSAT ([11]; Rate 0.2500 kg/ha)
9.0: herbicidal effect rating, ECHORC ([1]; Rate 0.0320 kg/ha) | herbicidal effect rating, ECHORC ([1]; Rate 0.0620 kg/ha) | herbicidal effect rating, ECHORC ([1]; Rate 0.1250 kg/ha) | herbicidal effect rating, ECHORC ([1]; Rate 0.2500 kg/ha) | herbicidal effect rating, CYPIR ([2]; Rate 0.0320 kg/ha) | herbicidal effect rating, CYPIR ([2]; Rate 0.0620 kg/ha) | herbicidal effect rating, CYPIR ([2]; Rate 0.1250 kg/ha) | herbicidal effect rating, CYPIR ([2]; Rate 0.2500 kg/ha) | herbicidal effect rating, MOOVA ([4]; Rate 0.0320 kg/ha) | herbicidal effect rating, MOOVA ([4]; Rate 0.0620 kg/ha) | herbicidal effect rating, MOOVA ([4]; Rate 0.1250 kg/ha) | herbicidal effect rating, MOOVA ([4]; Rate 0.2500 kg/ha) | herbicidal effect rating, SAGPY ([5]; Rate 0.2500 kg/ha) | herbicidal effect rating, ECHORC ([6]; Rate 0.0320 kg/ha) | herbicidal effect rating, ECHORC ([6]; Rate 0.0620 kg/ha) | herbicidal effect rating, ECHORC ([6]; Rate 0.1250 kg/ha) | herbicidal effect rating, ECHORC ([6]; Rate 0.2500 kg/ha) | herbicidal effect rating, CYPIR ([7]; Rate 0.0320 kg/ha) | herbicidal effect rating, CYPIR ([7]; Rate 0.0620 kg/ha) | herbicidal effect rating, CYPIR ([7]; Rate 0.1250 kg/ha) | herbicidal effect rating, CYPIR ([7]; Rate 0.2500 kg/ha) | herbicidal effect rating, MOOVA ([9]; Rate 0.0320 kg/ha) | herbicidal effect rating, MOOVA ([9]; Rate 0.0620 kg/ha) | herbicidal effect rating, MOOVA ([9]; Rate 0.1250 kg/ha) | herbicidal effect rating, MOOVA ([9]; Rate 0.2500 kg/ha)
5.5: herbicidal effect rating, SAGPY ([5]; Rate 0.0320 kg/ha)
6.0: herbicidal effect rating ORYSAT ([11]; Rate 0.0620 kg/ha) | herbicidal effect rating, ORYSAT (rice tolerance) ([12]; Rate 0.1250 kg/ha) | herbicidal effect rating, ORYSAT (rice tolerance) ([12]; Rate 0.2500 kg/ha)
7.5: herbicidal effect rating, CYPSE ([3]; Rate 0.1250 kg/ha) | herbicidal effect rating, CYPSE ([3]; Rate 0.2500 kg/ha)
8.0: herbicidal effect rating, SAGPY ([5]; Rate 0.0620 kg/ha) | herbicidal effect rating, CYPSE ([8]; Rate 0.2500 kg/ha)

CCOc1cccc(-c2nsc3ccc(-n4c(=O)cc(C(F)(F)F)n(C)c4=O)cc23)c1 [Example 327, 2,4(1H,3H)-Pyrimidinedione, 3-[3-(m-ethoxyphenyl)-1,2-benzisothiazol-5-yl]-1-methyl-6-(trifluoromethyl)-]
5.5: herbicidal effect rating, CYPSE ([3]; Rate 0.0620 kg/ha) | herbicidal effect rating, CYPSE ([3]; Rate 0.1250 kg/ha) | herbicidal effect rating, SAGPY ([5]; Rate 0.0620 kg/ha) | herbicidal effect rating, SAGPY ([5]; Rate 0.1250 kg/ha)
2.5: herbicidal effect rating ORYSAT ([11]; Rate 0.0620 kg/ha)
7.0: herbicidal effect rating, ECHORC ([6]; Rate 0.0620 kg/ha)
3.5: herbicidal effect rating ORYSAT ([11]; Rate 0.1250 kg/ha)
7.5: herbicidal effect rating, SAGPY ([5]; Rate 0.2500 kg/ha)
5.0: herbicidal effect rating, ORYSAT (rice tolerance) ([12]; Rate 0.1250 kg/ha)
3.0: herbicidal effect rating, SAGPY ([5]; Rate 0.0320 kg/ha) | herbicidal effect rating ORYSAT ([11]; Rate 0.0320 kg/ha) | herbicidal effect rating, ORYSAT (rice tolerance) ([12]; Rate 0.0620 kg/ha)
9.0: herbicidal effect rating, ECHORC ([1]; Rate 0.0320 kg/ha) | herbicidal effect rating, ECHORC ([1]; Rate 0.0620 kg/ha) | herbicidal effect rating, ECHORC ([1]; Rate 0.1250 kg/ha) | herbicidal effect rating, ECHORC ([1]; Rate 0.2500 kg/ha) | herbicidal effect rating, CYPIR ([2]; Rate 0.0320 kg/ha) | herbicidal effect rating, CYPIR ([2]; Rate 0.0620 kg/ha) | herbicidal effect rating, CYPIR ([2]; Rate 0.1250 kg/ha) | herbicidal effect rating, CYPIR ([2]; Rate 0.2500 kg/ha) | herbicidal effect rating, CYPSE ([3]; Rate 0.2500 kg/ha) | herbicidal effect rating, MOOVA ([4]; Rate 0.0320 kg/ha) | herbicidal effect rating, MOOVA ([4]; Rate 0.0620 kg/ha) | herbicidal effect rating, MOOVA ([4]; Rate 0.1250 kg/ha) | herbicidal effect rating, MOOVA ([4]; Rate 0.2500 kg/ha) | herbicidal effect rating, ECHORC ([6]; Rate 0.0320 kg/ha) | herbicidal effect rating, ECHORC ([6]; Rate 0.1250 kg/ha) | herbicidal effect rating, ECHORC ([6]; Rate 0.2500 kg/ha) | herbicidal effect rating, CYPIR ([7]; Rate 0.0320 kg/ha) | herbicidal effect rating, CYPIR ([7]; Rate 0.0620 kg/ha) | herbicidal effect rating, CYPIR ([7]; Rate 0.1250 kg/ha) | herbicidal effect rating, CYPIR ([7]; Rate 0.2500 kg/ha) | herbicidal effect rating, MOOVA ([9]; Rate 0.0320 kg/ha) | herbicidal effect rating, MOOVA ([9]; Rate 0.0620 kg/ha) | herbicidal effect rating, MOOVA ([9]; Rate 0.1250 kg/ha) | herbicidal effect rating, MOOVA ([9]; Rate 0.2500 kg/ha)
4.0: herbicidal effect rating, SAGPY ([10]; Rate 0.1250 kg/ha) | herbicidal effect rating, SAGPY ([10]; Rate 0.2500 kg/ha) | herbicidal effect rating ORYSAT ([11]; Rate 0.2500 kg/ha) | herbicidal effect rating, ORYSAT (rice tolerance) ([12]; Rate 0.2500 kg/ha)
0.0: herbicidal effect rating, CYPSE ([8]; Rate 0.0320 kg/ha) | herbicidal effect rating, CYPSE ([8]; Rate 0.0620 kg/ha) | herbicidal effect rating, CYPSE ([8]; Rate 0.1250 kg/ha) | herbicidal effect rating, SAGPY ([10]; Rate 0.0320 kg/ha) | herbicidal effect rating, SAGPY ([10]; Rate 0.0620 kg/ha)
2.0: herbicidal effect rating, CYPSE ([8]; Rate 0.2500 kg/ha) | herbicidal effect rating, ORYSAT (rice tolerance) ([12]; Rate 0.0320 kg/ha)
1.0: herbicidal effect rating, CYPSE ([3]; Rate 0.0320 kg/ha)
